Test results taken from PubChem BioAssay AID1259407 (Chemical Carcinogenesis Research Information System (CCRIS), 2018).
Active and inactive are the calls of the source. How the calls were made is not given here.

System: CCRIS mutagenicity, Ames/micronucleus/aberration tests
Experiment: CCRIS mutagenicity studies
[1] = Test System: AMES SALMONELLA TYPHIMURIUM, Strain/Indicator: TA98, Metabolic Activation: NONE, Method: PREINCUBATION
[2] = Test System: AMES SALMONELLA TYPHIMURIUM, Strain/Indicator: TA100, Metabolic Activation: NONE, Method: PREINCUBATION

With COP(=O)(OC)OC=C(Cl)Cl the mutagenic call (End Point: IN VITRO CHROMOSOMAL ABERRATIONS, Test System: CHO CELLS, Metabolic Activation: NONE) was “active; positive”, the mutagenic call (End Point: IN VITRO CHROMOSOMAL ABERRATIONS, Test System: CHO CELLS, Metabolic Activation: RAT, LIVER, S-9, AROCLOR 1254) was “active; positive” and the mutagenic call (End Point: In vivo micronucleus, Test System: Erythrocytes, Species: Mouse, Strain/Sex: Males and females (Strain not identified by DPR), Route: Intraperitoneal) was “inactive; negative”. For the same compound, the mutagenic call (Test System: AMES SALMONELLA TYPHIMURIUM, Strain/Indicator: TA98, Metabolic Activation: HAMSTER, LIVER, S-9, AROCLOR 1254 (30%), Method: PREINCUBATION) was “inactive; negative”, the mutagenic call [1] was “inactive; negative” and the mutagenic call (Test System: AMES SALMONELLA TYPHIMURIUM, Strain/Indicator: TA98, Metabolic Activation: RAT, LIVER, S-9, AROCLOR 1254 (30%), Method: PREINCUBATION) was “inactive; negative”. The mutagenic call (Test System: AMES SALMONELLA TYPHIMURIUM, Strain/Indicator: TA100, Metabolic Activation: HAMSTER, LIVER, S-9, AROCLOR 1254 (30%), Method: PREINCUBATION) was “active; positive”, the mutagenic call [2] was “active; positive” and the mutagenic call (Test System: AMES SALMONELLA TYPHIMURIUM, Strain/Indicator: TA100, Metabolic Activation: RAT, LIVER, S-9, AROCLOR 1254 (30%), Method: PREINCUBATION) was “active; positive”. For the same compound, the mutagenic call (Test System: AMES SALMONELLA TYPHIMURIUM, Strain/Indicator: TA100, Metabolic Activation: S-9, Method: STANDARD PLATE) was “active; positive”, the mutagenic call (Test System: CHINESE HAMSTER OVARY, Strain/Indicator: CHO-K1-BH4 (HGPRT)/6-THIOGUANINE, Metabolic Activation: NONE) was “active; positive” and the mutagenic call (Test System: CHINESE HAMSTER OVARY, Strain/Indicator: CHO-K1-BH4 (HGPRT)/6-THIOGUANINE, Metabolic Activation: S-9) was “active; positive”. For the same compound, the mutagenic call (Test System: CHINESE HAMSTER V-79, Strain/Indicator: V-79/OUABAIN, Metabolic Activation: NONE) was “inactive; negative”, the mutagenic call (Test System: E. COLI, Strain/Indicator: WP2, Metabolic Activation: NONE, Method: FLUCTUATION) was “active; positive” and the mutagenic call (Test System: E. COLI, Strain/Indicator: WP2, Metabolic Activation: NONE, Method: PREINCUBATION) was “active; positive”. The mutagenic call (Test System: E. COLI, Strain/Indicator: WP2, Metabolic Activation: NONE, Method: STANDARD PLATE) was “active; positive”, the mutagenic call (Test System: E. COLI, Strain/Indicator: WP2, Metabolic Activation: RAT, LIVER, S-9, AROCLOR 1254, Method: STANDARD PLATE) was “active; positive” and the mutagenic call (Test System: E. COLI, Strain/Indicator: WP2 UVRA, Metabolic Activation: NONE, Method: FLUCTUATION) was “active; positive”. The mutagenic call (Test System: E. COLI, Strain/Indicator: WP2 UVRA, Metabolic Activation: NONE, Method: PREINCUBATION) was “active; positive”, the mutagenic call (Test System: E. COLI, Strain/Indicator: WP2 UVRA, Metabolic Activation: NONE, Method: STANDARD PLATE) was “active; positive” and the mutagenic call (Test System: MOUSE LYMPHOMA, Strain/Indicator: L5178Y (TK+/TK-), Metabolic Activation: NONE, Method: SUSPENSION/PLATE) was “active; positive”. For the same compound, the mutagenic call (Test System: Mouse lymphoma, Strain/Indicator: L5178Y (TK+/TK-), Metabolic Activation: None) was “active; positive”, the mutagenic call (Test System: Mouse lymphoma, Strain/Indicator: L5178Y (TK+/TK-), Metabolic Activation: Rat, Liver, S-9) was “active; positive” and the mutagenic call (Test System: UDS HUMAN CELLS, Strain/Indicator: EUE LINE/THY INCORP, Metabolic Activation: NONE, Method: AUTORADIOGRAPHY) was “active; positive”. The mutagenic call (Test System: UDS MOUSE FORESTOMACH EPITHELIUM, Strain/Indicator: THY INCORP, Metabolic Activation: NONE, Method: AUTORADIOGRAPHY) was “inactive; negative”, the mutagenic call (Test System: UDS RAT HEPATOCYTES, Strain/Indicator: BROMODEOXYURIDINE INCORP, Metabolic Activation: NONE, Method: FLOW CYTOMETRIC ANALYSIS) was “inactive; negative” and the mutagenic call (Test System: UDS RAT HEPATOCYTES, Strain/Indicator: THY INCORP, Metabolic Activation: NONE, Method: AUTORADIOGRAPHY) was “inactive; negative”.

In the case of CC(=O)Nc1ccc(Oc2ccc(N(O)C(C)=O)cc2)cc1, the mutagenic call (Test System: AMES SALMONELLA TYPHIMURIUM, Strain/Indicator: TA98(1,8-DNP6), Metabolic Activation: NONE, Method: PREINCUBATION) is reported as “active; positive”, the mutagenic call (Test System: AMES SALMONELLA TYPHIMURIUM, Strain/Indicator: TA98(1,8-DNP6), Metabolic Activation: RAT, LIVER, S-9, AROCLOR 1254, Method: PREINCUBATION) is reported as “active; positive” and the mutagenic call (Test System: AMES SALMONELLA TYPHIMURIUM, Strain/Indicator: TA98(NR), Metabolic Activation: NONE, Method: PREINCUBATION) is reported as “active; positive”. For the same compound, the mutagenic call (Test System: AMES SALMONELLA TYPHIMURIUM, Strain/Indicator: TA98(NR), Metabolic Activation: RAT, LIVER, S-9, AROCLOR 1254, Method: PREINCUBATION) was “active; positive”, the mutagenic call [1] was “active; positive” and the mutagenic call (Test System: AMES SALMONELLA TYPHIMURIUM, Strain/Indicator: TA98, Metabolic Activation: RAT, LIVER, S-9, AROCLOR 1254, Method: PREINCUBATION) was “active; positive”. For the same compound, the mutagenic call (Test System: AMES SALMONELLA TYPHIMURIUM, Strain/Indicator: TA100(NR), Metabolic Activation: NONE, Method: PREINCUBATION) was “active; positive”, the mutagenic call (Test System: AMES SALMONELLA TYPHIMURIUM, Strain/Indicator: TA100(NR), Metabolic Activation: RAT, LIVER, S-9, AROCLOR 1254, Method: PREINCUBATION) was “active; positive” and the mutagenic call [2] was “active; positive”. The mutagenic call (Test System: AMES SALMONELLA TYPHIMURIUM, Strain/Indicator: TA100, Metabolic Activation: RAT, LIVER, S-9, AROCLOR 1254, Method: PREINCUBATION) was “active; positive”.

With O=C1[O][Bi][O]c2ccccc21 the mutagenic call (Test System: AMES SALMONELLA TYPHIMURIUM, Strain/Indicator: TA98, Metabolic Activation: HAMSTER, LIVER, S-9, AROCLOR 1254 (10%), Method: PREINCUBATION) was “inactive; negative”, the mutagenic call [1] was “inactive; negative” and the mutagenic call (Test System: AMES SALMONELLA TYPHIMURIUM, Strain/Indicator: TA98, Metabolic Activation: RAT, LIVER, S-9, AROCLOR 1254 (10%), Method: PREINCUBATION) was “inactive; negative”. The mutagenic call (Test System: AMES SALMONELLA TYPHIMURIUM, Strain/Indicator: TA100, Metabolic Activation: HAMSTER, LIVER, S-9, AROCLOR 1254 (10%), Method: PREINCUBATION) was “inactive; negative”, the mutagenic call [2] was “inactive; negative” and the mutagenic call (Test System: AMES SALMONELLA TYPHIMURIUM, Strain/Indicator: TA100, Metabolic Activation: RAT, LIVER, S-9, AROCLOR 1254 (10%), Method: PREINCUBATION) was “inactive; negative”. The mutagenic call (Test System: AMES SALMONELLA TYPHIMURIUM, Strain/Indicator: TA1535, Metabolic Activation: HAMSTER, LIVER, S-9, AROCLOR 1254 (10%), Method: PREINCUBATION) was “inactive; negative”, the mutagenic call (Test System: AMES SALMONELLA TYPHIMURIUM, Strain/Indicator: TA1535, Metabolic Activation: NONE, Method: PREINCUBATION) was “inactive; negative” and the mutagenic call (Test System: AMES SALMONELLA TYPHIMURIUM, Strain/Indicator: TA1535, Metabolic Activation: RAT, LIVER, S-9, AROCLOR 1254 (10%), Method: PREINCUBATION) was “inactive; negative”. For the same compound, the mutagenic call (Test System: AMES SALMONELLA TYPHIMURIUM, Strain/Indicator: TA1537, Metabolic Activation: HAMSTER, LIVER, S-9, AROCLOR 1254 (10%), Method: PREINCUBATION) was “inactive; negative”, the mutagenic call (Test System: AMES SALMONELLA TYPHIMURIUM, Strain/Indicator: TA1537, Metabolic Activation: NONE, Method: PREINCUBATION) was “inactive; negative” and the mutagenic call (Test System: AMES SALMONELLA TYPHIMURIUM, Strain/Indicator: TA1537, Metabolic Activation: RAT, LIVER, S-9, AROCLOR 1254 (10%), Method: PREINCUBATION) was “inactive; negative”.

With O=[N+]([O-])c1ccc(-c2ccccc2)c([N+](=O)[O-])c1 the mutagenic call [1] was “active; positive” and the mutagenic call (Test System: AMES SALMONELLA TYPHIMURIUM, Strain/Indicator: TA98, Metabolic Activation: RAT, LIVER, S-9, PCB (10%), Method: PREINCUBATION) was “active; positive”.

For OCc1ccc(Cl)cc1, the mutagenic call (Test System: AMES SALMONELLA TYPHIMURIUM, Strain/Indicator: TA100, Metabolic Activation: NONE, Method: STANDARD PLATE) was “inactive; negative”.
